The values below are quoted from earlier work in paper PMC11938273 (Journal of Chemical Information and Modeling, 2025).

Structures can show the parent of a compound that is named as a salt.

The conditions of the data set: in vivo; cited from earlier work.
For the compound `CCC(C)n1ncn(-c2ccc(N3CCN(c4ccc(OC[C@H]5CO[C@](Cn6cncn6)(c6ccc(Cl)cc6Cl)O5)cc4)CC3)cc2)c1=O` (stereo partly drawn) [Itraconazole, 2-sec-Butyl-4-{4-[4-(4-{[(2R,4S)-2-(2,4-dichlorophenyl)-2-(1H-1,2,4-triazol-1-ylmethyl)-1,3-dioxolan-4-yl]methoxy}phenyl)-1-piperazinyl]phenyl}-2,4-dihydro-3H-1,2,4-triazol-3-one], the CNS status entry was “Negative”.

As for `COC(=O)c1cnc2n1CCc1ccccc1C2=C1CCN(CCc2ccc(OCc3ccc4ccccc4n3)cc2)CC1` [Laniquidar, methyl 11-(1-(4-(quinolin-2-ylmethoxy)phenethyl)piperidin-4-ylidene)-6,11-dihydro-5H-benzo[d]imidazo[1,2-a]azepine-3-carboxylate], the CNS status result is reported as “Efflux transporter substrate”.

With `CC#CCn1c(N2CCC[C@@H](N)C2)nc2c1c(=O)n(Cc1nc(C)c3ccccc3n1)c(=O)n2C` [Linagliptin, 8-(3-Amino-1-piperidinyl)-7-(2-butyn-1-yl)-3-methyl-1-[(4-methyl-2-quinazolinyl)methyl]-3,7-dihydro-1H-purine-2,6-dione], the CNS status result was “Negative”.

For `CNCC(O)CCN1c2ccccc2N(c2ccccc2)S1(=O)=O` (centres unmarked) [Me@HAPTHI, 4-(2,2-Dioxido-3-phenyl-2,1,3-benzothiadiazol-1(3H)-yl)-1-(methylamino)-2-butanol], the CNS status entry is given as “Negative”.

Regarding `O=S(=O)(O)CCS` [Mesna (Coenzyme M), 2-mercaptoethane sulfonic acid], the CNS status result is “Negative”.

Take `COC(=O)c1cncn1[C@H](C)c1ccccc1` [Metomidate, (R)-methyl 1-(1-phenylethyl)-1H-imidazole-5-carboxylate]: the CNS status entry was “Positive”.

On to `Cn1c2c(c3ccccc31)C[C@@]1(O)C3Cc4ccc(O)c5c4C1(CCN3CC1CC1)[C@H]2O5` (stereo partly drawn) [N-Methylnaltrinidole, (8aS,14bR)-7-(cyclopropylmethyl)-14-methyl-5,6,7,8,8a,9,14, 14b-octahydro-4,8-methanobenzofuro[2,3-a]pyrido [4,3-b]carbazole-1,8a-diol], for which the CNS status entry is recorded as “Positive”.

Take `Cc1c(O)cccc1C(=O)N[C@@H](CSc1ccccc1)[C@H](O)CN1C[C@H]2CCCC[C@H]2C[C@H]1C(=O)NC(C)(C)C` [Nelfinavir, (3S,4aS,8aS)-2-[(2R,3R)-2-Hydroxy-3-[(3-hydroxy-2-methylbenzoyl)amino]-4-(phenylsulfanyl)butyl]-N-(2-methyl-2-propanyl)decahydro3-isoquinolinecarboxamide]: the CNS status result was “Efflux transporter substrate”.

Turning to `CN(C)C(=O)Oc1cccc([N+](C)(C)C)c1` [Neostigmine, 3-[(Dimethylcarbamoyl)oxy]-N,N,N-trimethylanilinium], the CNS status result was “Negative”.

Turning to `COC(=O)C1=C(C)NC(C)=C(C(=O)OCCN(C)Cc2ccccc2)C1c1cccc([N+](=O)[O-])c1` (centres unmarked) [Nicardipine, 2-[Benzyl(methyl)amino]ethyl methyl 2,6-dimethyl-4-(3-nitrophenyl)-1,4-dihydro-3,5-pyridinedicarboxylate], the CNS status result is “Efflux transporter substrate”.

Turning to `Fc1ncccc1OCC1C=CCN1` (centres unmarked) [Nifene, 3-((2,5-dihydro-1H-pyrrol-2-yl)methoxy)-2-fluoropyridine], the CNS status entry was “Positive”.

As for `Cc1nccn1CC1CCc2c(c3ccccc3n2C)C1=O` (centres unmarked) [Ondansetron, 9-Methyl-3-[(2-methyl-1H-imidazol-1-yl)methyl]-1,2,3,9-tetrahydro-4H-carbazol-4-one], the CNS status entry was “Efflux transporter substrate”.

Consider `COC(=O)[C@H]1[C@@H](c2ccc(C)cc2)C[C@@H]2CC[C@H]1N2C/C=C/I` [PE2i, (1R,2S,3S,5S)-methyl 8-((E)-3-iodoallyl)-3-(p-tolyl)-8-azabicyclo[3.2.1]octane-2-carboxylate], for which the CNS status entry was “Positive”.

Turning to `CCC(C)N(C)C(=O)c1cc2ccccc2c(-c2ccccc2Cl)n1` (centres unmarked) [PK11195, N-(sec-butyl)-1-(2-chlorophenyl)-N-methylisoquinoline3-carboxamide], the CNS status result is “Positive”.

As to `CCC(=O)OC1CCNCC1` [PMP, piperidin-4-yl propionate], the CNS status entry is recorded as “Positive”.

As to `CCC(=O)NS(=O)(=O)c1ccc(-c2c(-c3ccccc3)noc2C)cc1` [Parecoxib, N-{[4-(5-Methyl-3-phenyl-1,2-oxazol4-yl)phenyl]sulfonyl}propanamide], the CNS status entry was “Negative”.

As to `CNC(=O)Oc1ccc2c(c1)[C@]1(C)CCN(C)[C@@H]1N2C` [Physostigmine, (3aS,8aR)-1,3a,8-trimethyl-1,2,3,3a,8,8a-hexahydropyrrolo[2,3-b]indol-5-yl methylcarbamate], the CNS status result is given as “Positive”.

Regarding `CN/C(=C\[N+](=O)[O-])NCCSCc1ccc(CN(C)C)o1` [Ranitidine, (E)-N-{2-[({5-[(Dimethylamino)methyl]-2-furyl}methyl)sulfanyl]ethyl}-N′-methyl-2-nitro-1,1-ethenediamine], the CNS status result is on record as “Efflux transporter substrate”.

For the compound `COC(=O)c1ccccc1-c1c2ccc(=N)cc-2oc2cc(N)ccc12` [Rhodamine 123, 6-Amino-9-[2-(methoxycarbonyl)phenyl]-3H-xanthen-3-iminium], the CNS status entry was “Efflux transporter substrate”.

On to `CC(C)c1nc(CN(C)C(=O)N[C@H](C(=O)N[C@@H](Cc2ccccc2)C[C@H](O)[C@H](Cc2ccccc2)NC(=O)OCc2cncs2)C(C)C)cs1` [Ritonavir, (1E,2S)-N-[(2S,4S,5S)-4-Hydroxy-5-{(E)-[hydroxy(1,3-thiazol-5-ylmethoxy)methylene]amino}-1,6-diphenyl-2-hexanyl]-2-[(E)-(hydroxy{[(2-isopropyl-1,3-thiazol-4-yl)methyl](methyl)amino}methylene)amino]-3-methylbutanimidic acid], for which the CNS status result was “Efflux transporter substrate”.

`CS(=O)(=O)c1ccc(C2=C(c3ccccc3)C(=O)OC2)cc1` [Rofecoxib, 4-[4-(Methylsulfonyl)phenyl]-3-phenyl2(5H)-furanone]: the CNS status entry is reported as “Negative”.

As for `COc1ccc(C2CNC(=O)C2)cc1OC1CCCC1` (centres unmarked) [Rolipram, 4-(3-(Cyclopentyloxy)-4-methoxyphenyl)pyrrolidin-2-one], the CNS status entry is “Positive”.

Regarding `CC[C@H]1OC(=O)[C@H](C)[C@@H](O[C@H]2C[C@@](C)(OC)[C@@H](O)[C@H](C)O2)[C@H](C)[C@@H](O[C@@H]2O[C@H](C)C[C@H](N(C)C)[C@H]2O)[C@](C)(O)C[C@@H](C)/C(=N\OCOCCOC)[C@H](C)[C@@H](O)[C@]1(C)O` [Roxithromycin], the CNS status result is given as “Negative”.

As for `CN1CCc2cc(Cl)c(O)cc2[C@@H](c2ccccc2)C1` [SCH-23390 hydrochloride, (R)-8-chloro-3-methyl-5-phenyl-2,3,4,5-tetrahydro1H-benzo[d]azepin-7-ol], the CNS status result is “Positive”.

Turning to `COCC1=C(C(=O)OC)[C@H](c2ccc(F)c(F)c2)N(C(=O)NCCCN2CCC(c3cccc(NC(C)=O)c3)CC2)C(=O)N1` [SNAP7941, methyl 3-((3-(4-(3-acetamidophenyl)piperidin-1-yl)propyl)carbamoyl)-4-(3,4-difluorophenyl)-6-(methoxymethyl)-2-oxo-1,2,3,4-tetrahydropyrimidine-5-carboxylate], the CNS status result is “Efflux transporter substrate”.

`Cc1nc2n(c(=O)c1CCN1CCC(C(=O)c3ccc(F)cc3)CC1)CCS2` [Setoperone, 6-(2-(4-(4-Fluorobenzoyl)piperidin-1-yl)ethyl)-7-methyl-2H-thiazolo[3,2-a]pyrimidin-5(3H)-one]: the CNS status entry is on record as “Positive”.

Take `N[C@@H](CC(=O)N1CCn2c(nnc2C(F)(F)F)C1)Cc1cc(F)c(F)cc1F` [Sitagliptin, (3R)-3-Amino-1-[3-(trifluoromethyl)-5,6-dihydro[1,2,4]triazolo[4,3-a]pyrazin-7(8H)-yl]-4-(2,4,5-trifluorophenyl)-1-butanone]: the CNS status entry was “Negative”.

For the compound `CC(C)NCC(O)c1ccc(NS(C)(=O)=O)cc1` (centres unmarked) [Sotalol, N-{4-[1-Hydroxy-2-(isopropylamino)ethyl]phenyl}methanesulfonamide], the CNS status result is “Negative”.

Regarding `COc1cc2c(cc1OC)CN(CCc1ccc(NC(=O)c3cc(OC)c(OC)cc3NC(=O)c3cnc4ccccc4c3)cc1)CC2` [Tariquidar, N-[2-({4-[2-(6,7-Dimethoxy-3,4-dihydro-2(1H)-isoquinolinyl)ethyl]phenyl}carbamoyl)-4,5-dimethoxyphenyl]-3-quinolinecarboxamide], the CNS status result was “Efflux transporter substrate”.

Regarding `COc1cc([C@@H]2c3cc4c(cc3[C@@H](O[C@@H]3O[C@@H]5CO[C@@H](c6cccs6)O[C@H]5[C@H](O)[C@H]3O)[C@H]3COC(=O)[C@H]23)OCO4)cc(OC)c1O` [Teniposide, (5S,5aR,8aR,9R)-9-(4-Hydroxy-3,5-dimethoxyphenyl)-8-oxo-5,5a,6,8,8a,9-hexahydrofuro[3′,4′:6,7]naphtho[2,3-d][1,3]dioxol-5-yl 4,6-O-(2-thienylmethylene)-β-D-glucopyranoside], the CNS status entry was “Efflux transporter substrate”.

For the compound `Cc1ccc(C(=O)c2cc(O)c(O)c([N+](=O)[O-])c2)cc1` [Tolcapone, (3,4-dihydroxy-5-nitrophenyl)(p-tolyl)methanone], the CNS status entry was “Negative”.

As to `CC[C@]1(O)C[C@@H]2CN(CCc3c([nH]c4ccccc34)[C@@](C(=O)OC)(c3cc4c(cc3OC)N(C)[C@H]3[C@@](O)(C(=O)OC)[C@H](OC(C)=O)[C@]5(CC)C=CCN6CC[C@]43[C@@H]65)C2)C1` [Vinblastine, Dimethyl (2β,3β,4β,5α,12β,19α)-15-[(5S,9S)-5-ethyl-5-hydroxy-9-(methoxycarbonyl)-1,4,5,6,7,8,9,10-octahydro-2 H-3,7-methanoazacycloundecino [5,4-b]indol-9-yl]-3-hydroxy-16-methoxy-1-methyl-6,7-didehydroaspidospermidine3,4-dicarboxylate], the CNS status entry was “Efflux transporter substrate”.
